The values below come from patent US10544154B2, “Opioid receptor antagonist prodrugs” (Nirsum Laboratories, Inc., priority 2017, dated 2020).

Data set [1] can be described thus: Plasma stability, dog plasma (HPLC-MS). It counts as in vitro ADME. As to conditions: 2 μM, 37° C. The procedure: (§1) Plasma stability determination of the test compounds in rat, dog, cynomolgus monkey and human plasma is performed using HPLC-MS. For rat, incubations are carried out in 96-well polypropylene plates in 5 aliquots of 70 μL each (one for each time point). […] Five time points are analyzed (0, 15, 120, 480 and 1440 min). For dog, monkey and human, test compounds (2 μM, final solvent concentration 1%) were also incubated at 37° C. and analyzed at five time points (0, 10, 30, 60 and 120 min). All incubations are performed in duplicates. The samples are analyzed by HPLC-MS. The percentage of parent compound remaining after incubation in plasma is determined.

The nature of data set [2]: Plasma stability, cynomolgus monkey plasma (HPLC-MS). The format is in vitro ADME. The following applies: 2 μM, 37° C. On the procedure: (§2) Plasma stability determination of the test compounds in rat, dog, cynomolgus monkey and human plasma is performed using HPLC-MS. For rat, incubations are carried out in 96-well polypropylene plates in 5 aliquots of 70 μL each (one for each time point). […] Five time points are analyzed (0, 15, 120, 480 and 1440 min). […] All incubations are performed in duplicates. The samples are analyzed by HPLC-MS. The percentage of parent compound remaining after incubation in plasma is determined.

A short description of data set [3]: Plasma stability, human plasma (HPLC-MS). The format is in vitro ADME. As to conditions: 2 μM, 37° C., 0 min. The procedure:
as §2

Data set [4] in a line: Solubility determination in oil (cottonseed oil, sesame oil), HPLC. On the procedure:
A known amount of test substance (˜40 mg) was weighed into the vial, 100 μL of oil was added and heated to 60° C. and then system was slurried to reach equilibrium. […] Then the clear solution was placed at room temperature (25° C.) for 24 h to confirm whether there was solid precipitation. Extra oil was added into the vial once compound precipitated out and then the system was re-equilibrated at 1000 rpm at room temperature (25° C.). Final concentration was determined by HPLC method as described below in Table 6a and 6b.

Data set [5] in a line: Plasma stability, rat plasma (HPLC-MS). The format is in vitro ADME. As to conditions: 10 μM, 37° C. On the procedure:
as §1

Data set [6] in a line: Polymorph screening of solid state drug substances. The format is physicochemical. As to conditions: for Dry method and appearance: after stirring at 50 °C for 72 hours; for XRPD results (Dried): dried solid.
[7] abbreviates: Heating Temp. 60 °C, Obs. Temp. 25 °C.
Where [8] appears, read: Heating Temp. 60 °C, Obs. Temp. 40 °C.

The structures appear in SMILES notation.

As to `CCCCCCCCCCCCCCCC(=O)OC1CCCn2c1nc(C)c(CCN1CCC(c3noc4cc(F)ccc34)CC1)c2=O` (centres unmarked) [Paliperidone palmitate, reference compound], the “% remaining at time point in minutes, 0 min” value in data set [1], in data set [2] (0 min) and in data set [3] was 100% in each case. Moreover, the “% remaining at time point in minutes, 15 min” value in data set [2] (15 min) is reported as 92%.
On to `C=C1CC[C@@]2(O)C3Cc4ccc(OC(=O)CCC5CCCC5)c5c4[C@@]2(CCN3CC2CC2)[C@H]1O5` [Compound 39, (4aS,7aS,12bS)-3-(cyclopropylmethyl)-4a-hydroxy-7-methylene-2,3,4,4a,5,6,7,7a-octahydro-1H-4,12-methanobenzofuro[3,2-e]isoquinolin-9-yl 3-cyclopentylpropanoate], for which, in data set [4] (Heating Temp. 40 °C, Obs. Temp. 40 °C), the “Approximate Solubility in Excipient: Cottonseed oil” value was in the range of 225 to 402.2 mg/mL.
For `C=C1CC[C@@]2(O)C3Cc4ccc(OC(=O)CCCCCCC/C=C\C/C=C\CCCCC)c5c4[C@@]2(CCN3CC2CC2)[C@H]1O5` [Compound 37, (4aS,7aS,12bS)-3-(cyclopropylmethyl)-4a-hydroxy-7-methylene-2,3,4,4a,5,6,7,7a-octahydro-1H-4,12-methanobenzofuro[3,2-e]isoquinolin-9-yl (9Z,12Z)-octadeca-9,12-dienoate], in data set [4] (setting [7]), the “Approximate Solubility in Excipient: Cottonseed oil” value is 68.5 to 82 mg/mL.
As for `CCCCCCCCCCCCCCCCOC(=O)Oc1ccc2c3c1O[C@H]1C(=O)CC[C@@]4(O)C(C2)N(CC2CC2)CC[C@]314` [Compound 21, (4aS,7aR,12bS)-3-(cyclopropylmethyl)-4a-hydroxy-7-oxo-2,3,4,4a,5,6,7,7a-octahydro-1H-4,12-methanobenzofuro[3,2-e]isoquinolin-9-yl hexadecyl carbonate], in data set [5], the “% remaining at time point in minutes, 0 min” value was determined as 100%. For the same molecule, in data set [4] (setting [8]), the “Approximate Solubility in Excipient: Cottonseed oil” value was 101 to 134.8 mg/mL. Besides, the “Approximate Solubility in Excipient: Sesame oil” value in data set [4] (setting [8]) lay within 101 to 134.5 mg/mL. Also, the “Dry method and appearance” value in data set [6] (Acetone), in data set [6] (EtOAc), in data set [6] (Heptane), in data set [6] (Isopropanol) and in data set [6] (MTBE) was “Evaporation/white powder” in each case. Besides, the “XRPD results (Dried)” value in data set [6] (Acetone), in data set [6] (EtOAc), in data set [6] (Heptane), in data set [6] (Isopropanol) and in data set [6] (MTBE) was “Pattern A” each time.
In the case of `C=C1CC[C@@]2(O)C3Cc4ccc(OC(=O)OCCCCCCCCCCCCCCCC)c5c4[C@@]2(CCN3CC2CC2)[C@H]1O5` [Compound 19, (4aS,7aS,12bS)-3-(cyclopropylmethyl)-4a-hydroxy-7-methylene-2,3,4,4a,5,6,7,7a-octahydro-1H-4,12-methanobenzofuro[3,2-e]isoquinolin-9-yl hexadecyl carbonate], the “% remaining at time point in minutes, 0 min” value in data set [5] is 100%. Further, the “Dry method and appearance” value in data set [6] (Acetone), in data set [6] (EtOAc), in data set [6] (Heptane), in data set [6] (Isopropanol) and in data set [6] (MTBE) was “Evaporation/white powder” in each case. Moreover, the “XRPD results (Dried)” value in data set [6] (Acetone), in data set [6] (EtOAc), in data set [6] (Heptane), in data set [6] (Isopropanol) and in data set [6] (MTBE) was “Pattern A” throughout.
For the molecule `CCCCCCCCCCCCCCCC(=O)Oc1ccc2c3c1O[C@H]1C(=O)CC[C@@]4(O)C(C2)N(CC2CC2)CC[C@]314` [Compound 55, (4aS,7aR,12bS)-3-(cyclopropylmethyl)-4a-hydroxy-7-oxo-2,3,4,4a,5,6,7,7a-octahydro-1H-4,12-methanobenzofuro[3,2-e]isoquinolin-9-yl palmitate], the “% remaining at time point in minutes, 0 min” value in data set [5] amounted to 100%. Moreover, the “Dry method and appearance” value in data set [6] (Acetone), in data set [6] (EtOAc), in data set [6] (Heptane), in data set [6] (Isopropanol) and in data set [6] (MTBE) was “Evaporation/white powder” throughout. Also, the “XRPD results (Dried)” value in data set [6] (Acetone), in data set [6] (EtOAc), in data set [6] (Heptane), in data set [6] (Isopropanol) and in data set [6] (MTBE) was “Pattern B” in each case.
For the molecule `CCCCC/C=C\C/C=C\CCCCCCCC(=O)Oc1ccc2c3c1O[C@H]1C(=O)CC[C@@]4(O)C(C2)N(CC2CC2)CC[C@]314` [Compound 53, (4aS,7aR,12bS)-3-(cyclopropylmethyl)-4a-hydroxy-7-oxo-2,3,4,4a,5,6,7,7a-octahydro-1H-4,12-methanobenzofuro[3,2-e]isoquinolin-9-yl (9Z,12Z)-octadeca-9,12-di.enoate], in data set [5], the “% remaining at time point in minutes, 0 min” value is given as 100%; the “% remaining at time point in minutes, 480 min” value was found to be 7.3%; the “% remaining at time point in minutes, 1440 min” value is 1.9%. Moreover, in data set [4] (setting [7]), the “Approximate Solubility in Excipient: Cottonseed oil” value was over 408.5 mg/mL and the “Approximate Solubility in Excipient: Sesame oil” value was over 401.9 mg/mL. Further, the “Approximate Solubility in Excipient: Sesame oil” value in data set [4] (setting [8]) is over 406.3 mg/mL.
For `C=C1CC[C@@]2(O)C3Cc4ccc(OC(=O)OCCCCCCCCCCCCCC)c5c4[C@@]2(CCN3CC2CC2)[C@H]1O5` [Compound 31, (4aS,7aS,12bS)-3-(cyclopropylmethyl)-4a-hydroxy-7-methylene-2,3,4,4a,5,6,7,7a-octahydro-1H-4,12-methanobenzofuro[3,2-e]isoquinolin-9-yl tetradecyl carbonate], the “% remaining at time point in minutes, 0 min” value in data set [5] amounted to 100%. The “Dry method and appearance” value in data set [6] (Acetone), in data set [6] (EtOAc), in data set [6] (Heptane), in data set [6] (Isopropanol) and in data set [6] (MTBE) was “Evaporation/white powder” in each case. For the same molecule, the “XRPD results (Dried)” value in data set [6] (Acetone), in data set [6] (EtOAc), in data set [6] (Heptane), in data set [6] (Isopropanol) and in data set [6] (MTBE) was “Pattern A” in each case.
With `CCCCCCCCCCCCOC(=O)Oc1ccc2c3c1O[C@H]1C(=O)CC[C@@]4(O)C(C2)N(CC2CC2)CC[C@]314` [Compound 11, (4aS,7aR,12bS)-3-(cyclopropylmethyl)-4a-hydroxy-7-oxo-2,3,4,4a,5,6,7,7a-octahydro-1H-4,12-methanobenzofuro[3,2-e]isoquinolin-9-yl dodecyl carbonate], the “% remaining at time point in minutes, 0 min” value in data set [5] is 100%. Besides, the “% remaining at time point in minutes, 15 min” value in data set [5] (15 min) came to 0.7%. Moreover, the “% remaining at time point in minutes, 120 min” value in data set [5] (120 min) is given as 0.3%. Moreover, the “% remaining at time point in minutes, 480 min” value in data set [5] is on record as 0.2%. The “% remaining at time point in minutes, 1440 min” value in data set [5] came to 0%. The “Dry method and appearance” value in data set [6] (Acetone), in data set [6] (EtOAc), in data set [6] (Heptane), in data set [6] (Isopropanol) and in data set [6] (MTBE) was “Evaporation/white powder” throughout. In addition, the “XRPD results (Dried)” value in data set [6] (Acetone) is “Pattern A”; in data set [6] (EtOAc), “Pattern A”; in data set [6] (Heptane) it was “Pattern B”; in data set [6] (Isopropanol), “Pattern A”; in data set [6] (MTBE) it was “Pattern A”.
On to `CCCCCCCC/C=C/CCCCCCCC(=O)OCOc1ccc2c3c1O[C@H]1C(=O)CC[C@@]4(O)C(C2)N(CC2CC2)CC[C@]314` [Compound 26, (((4aS,7aR,12bS)-3-(cyclopropylmethyl)-4a-hydroxy-7-oxo-2,3,4,4a,5,6,7,7a-octahydro-1H-4,12-methanobenzofuro[3,2-e]isoquinolin-9-yl)oxy)methyl (E)-octadec-9-enoate], for which the “Approximate Solubility in Excipient: Cottonseed oil” value in data set [4] (setting [7]) fell in the range of 204.3 to 239 mg/mL.
